From patent publication US8758816B2, “Compositions comprising azelastine and methods of use thereof” (priority 2004, dated 2014)

Tested on: patients with seasonal allergic rhinitis (SAR)
Assay: MP 428 study: adverse events, Safety Population
Assay type: in vivo, human
Experimental: A two-week, randomized, double-blind study, which evaluated the effects of the co-administration of ASTELIN® (azelastine hydrochloride (HCl)) and FLONASE® (fluticasone propionate) compared to either product alone in patients with seasonal allergic rhinitis (SAR) was conducted during the 2006 Texas mountain cedar season. After a 5-day placebo lead-in period, 151 patients with moderate-to-severe allergic rhinitis symptoms were randomized to either: (1) (49 total patients) ASTELIN® (azelastine hydrochloride (HCl)) plus placebo saline nasal spray 2 sprays per nostril, 15 minutes apart, twice daily (AM & PM); (2) (50 total patients) FLONASE® (fluticasone propionate) plus placebo saline nasal spray, 2 sprays per nostril, 15 minutes apart, once daily (AM) and two sessions of placebo saline nasal spray, 2 sprays per nostril, 15 minutes apart (PM); or (3) (52 total patients) the co-administration of ASTELIN® (azelastine hydrochloride (HCl)) 2 sprays per nostril plus FLONASE® (fluticasone propionate) 2 sprays per nostril (AM), 15 minutes apart, and ASTELIN® (azelastine hydrochloride (HCl)) 2 sprays per nostril plus placebo saline nasal spray, 15 minutes apart, (PM) for a 2-week double-blind treatment period.
The most common adverse events (AEs) were bitter taste (8.2% in ASTELIN® (azelastine hydrochloride (HCl)) group, 2.0% in FLONASE® (fluticasone propionate) group, 13.5% in co-administration group) and headache (4.1% in ASTELIN® (azelastine hydrochloride (HCl)) group, 4.0% in FLONASE® (fluticasone propionate) group, 5.8% in co-administration group). No other AE was reported by more than one patient in any treatment group. There were no discontinuations due to AEs.

[1] = Possibly related to study drug, Safety Population
[2] = Probably related to study drug, Safety Population
[3] = Total (possibly or probably related), Safety Population

CCC(=O)O[C@]1(C(=O)SCF)[C@H](C)C[C@H]2[C@@H]3C[C@H](F)C4=CC(=O)C=C[C@]4(C)[C@@]3(F)[C@@H](O)C[C@@]21C [Fluticasone, fluticasone propionate]
Primary Reason for Discontinuation From Study: Adverse Event (All Randomized Patients): 0 (0.0) N (%) | Number (%) Patients With Treatment-Related AEs by Maximum Severity (Mild): 3 (6.0) Number (%) | Number (%) Patients With Treatment-Related AEs by Maximum Severity (Moderate): 1 (2.0) Number (%) | Treatment-Related Adverse Events: Any Adverse Event [1]: 4 (8.0) No. of Patients (%) | Treatment-Related Adverse Events: DRY MOUTH [1]: 1 (2.0) No. of Patients (%) | Treatment-Related Adverse Events: DYSGEUSIA [1]: 1 (2.0) No. of Patients (%) | Treatment-Related Adverse Events: EPISTAXIS [1]: 0 (0.0) No. of Patients (%) | Treatment-Related Adverse Events: GASTROINTESTINAL DISORDERS, Any Preferred Term [1]: 3 (6.0) No. of Patients (%) | Treatment-Related Adverse Events: HEADACHE [1]: 1 (2.0) No. of Patients (%) | Treatment-Related Adverse Events: NASAL DISCOMFORT [1]: 0 (0.0) No. of Patients (%) | Treatment-Related Adverse Events: NERVOUS SYSTEM DISORDERS, Any Preferred Term [1]: 1 (2.0) No. of Patients (%) | Treatment-Related Adverse Events: RESPIRATORY, THORACIC AND MEDIASTINAL DISORDERS, Any Preferred Term [1]: 0 (0.0) No. of Patients (%) | Treatment-Related Adverse Events: STOMACH DISCOMFORT [1]: 1 (2.0) No. of Patients (%) | Treatment-Related Adverse Events: Any Adverse Event [2]: 0 (0.0) No. of Patients (%) | Treatment-Related Adverse Events: DRY MOUTH [2]: 0 (0.0) No. of Patients (%) | Treatment-Related Adverse Events: DYSGEUSIA [2]: 0 (0.0) No. of Patients (%) | Treatment-Related Adverse Events: EPISTAXIS [2]: 0 (0.0) No. of Patients (%) | Treatment-Related Adverse Events: GASTROINTESTINAL DISORDERS, Any Preferred Term [2]: 0 (0.0) No. of Patients (%) | Treatment-Related Adverse Events: HEADACHE [2]: 0 (0.0) No. of Patients (%) | Treatment-Related Adverse Events: NASAL DISCOMFORT [2]: 0 (0.0) No. of Patients (%) | Treatment-Related Adverse Events: NERVOUS SYSTEM DISORDERS, Any Preferred Term [2]: 0 (0.0) No. of Patients (%) | Treatment-Related Adverse Events: RESPIRATORY, THORACIC AND MEDIASTINAL DISORDERS, Any Preferred Term [2]: 0 (0.0) No. of Patients (%) | Treatment-Related Adverse Events: STOMACH DISCOMFORT [2]: 0 (0.0) No. of Patients (%) | Number (%) Patients With Any AEs: All Treatment-Related AEs (Safety Population): 4 (8.0) Number (%) | Number (%) of Deaths (Safety Population): 0 (0.0) Number (%) | Number (%) of Patients With Serious AEs (Safety Population): 0 (0.0) Number (%) | Number of Adverse Events Reported: All Treatment-Emergent AEs (Safety Population): 5 | Number of Adverse Events Reported: All Treatment-Related AEs (Safety Population): 4 | Number (%) Patients With Treatment-Related AEs by Maximum Severity (Severe): 0 (0.0) Number (%) | Treatment-Emergent AE: Any Adverse Event (Total): 5 (10.0) No. of Patients (%) | Treatment-Emergent AE: DRY MOUTH (Total): 1 (2.0) No. of Patients (%) | Treatment-Emergent AE: DYSGEUSIA (Total): 1 (2.0) No. of Patients (%) | Treatment-Emergent AE: EAR AND LABYRINTH DISORDERS, Any Preferred Term (Total): 0 (0.0) No. of Patients (%) | Treatment-Emergent AE: EAR PAIN (Total): 0 (0.0) No. of Patients (%) | Treatment-Emergent AE: EPISTAXIS (Total): 0 (0.0) No. of Patients (%) | Treatment-Emergent AE: GASTROINTESTINAL DISORDERS, Any Preferred Term (Total): 3 (6.0) No. of Patients (%) | Treatment-Emergent AE: HEADACHE (Total): 2 (4.0) No. of Patients (%) | Treatment-Emergent AE: MUSCULOSKELETAL AND CONNECTIVE TISSUE DISORDERS, Any Preferred Term (Total): 0 (0.0) No. of Patients (%) | Treatment-Emergent AE: MYALGIA (Total): 0 (0.0) No. of Patients (%) | Treatment-Emergent AE: NASAL DISCOMFORT (Total): 0 (0.0) No. of Patients (%) | Treatment-Emergent AE: NECK PAIN (Total): 0 (0.0) No. of Patients (%) | Treatment-Emergent AE: NERVOUS SYSTEM DISORDERS, Any Preferred Term (Total): 2 (4.0) No. of Patients (%) | Treatment-Emergent AE: PHARYNGOLARYNGEAL PAIN (Total): 0 (0.0) No. of Patients (%) | Treatment-Emergent AE: RESPIRATORY, THORACIC AND MEDIASTINAL DISORDERS, Any Preferred Term (Total): 0 (0.0) No. of Patients (%) | Treatment-Emergent AE: STOMACH DISCOMFORT (Total): 1 (2.0) No. of Patients (%) | Treatment-Related Adverse Events: Any Adverse Event [3]: 4 (8.0) No. of Patients (%) | Treatment-Related Adverse Events: DRY MOUTH [3]: 1 (2.0) No. of Patients (%) | Treatment-Related Adverse Events: DYSGEUSIA [3]: 1 (2.0) No. of Patients (%) | Treatment-Related Adverse Events: EPISTAXIS [3]: 0 (0.0) No. of Patients (%) | Treatment-Related Adverse Events: GASTROINTESTINAL DISORDERS, Any Preferred Term [3]: 3 (6.0) No. of Patients (%) | Treatment-Related Adverse Events: HEADACHE [3]: 1 (2.0) No. of Patients (%) | Treatment-Related Adverse Events: NASAL DISCOMFORT [3]: 0 (0.0) No. of Patients (%) | Treatment-Related Adverse Events: NERVOUS SYSTEM DISORDERS, Any Preferred Term [3]: 1 (2.0) No. of Patients (%) | Treatment-Related Adverse Events: RESPIRATORY, THORACIC AND MEDIASTINAL DISORDERS, Any Preferred Term [3]: 0 (0.0) No. of Patients (%) | Treatment-Related Adverse Events: STOMACH DISCOMFORT [3]: 1 (2.0) No. of Patients (%) | Treatment-Emergent AE: Any Adverse Event (max severity Mild): 4 (8.0) No. of Patients (%) | Treatment-Emergent AE: DRY MOUTH (max severity Mild): 1 (2.0) No. of Patients (%) | Treatment-Emergent AE: DYSGEUSIA (max severity Mild): 1 (2.0) No. of Patients (%) | Treatment-Emergent AE: EAR AND LABYRINTH DISORDERS, Any Preferred Term (max severity Mild): 0 (0.0) No. of Patients (%) | Treatment-Emergent AE: EAR PAIN (max severity Mild): 0 (0.0) No. of Patients (%) | Treatment-Emergent AE: EPISTAXIS (max severity Mild): 0 (0.0) No. of Patients (%) | Treatment-Emergent AE: GASTROINTESTINAL DISORDERS, Any Preferred Term (max severity Mild): 2 (4.0) No. of Patients (%) | Treatment-Emergent AE: HEADACHE (max severity Mild): 2 (4.0) No. of Patients (%) | Treatment-Emergent AE: MUSCULOSKELETAL AND CONNECTIVE TISSUE DISORDERS, Any Preferred Term (max severity Mild): 0 (0.0) No. of Patients (%)
